Results: patent publication US10786475B2, “Method for preventing, treating, or improving fatty liver by administering effective amounts of azelaic acid to a subject” (Korea University Research and Business Foundation, priority 2018, dated 2020)

Assays:
[1] = test system: fatty liver-induced mouse; assay: Fatty liver inhibitory effect in high-fat diet fatty liver-induced wild-type C57BL/6J mouse; type: in vivo; settings: WT mouse
Procedure: Mice used in the example, which were an eight-week-old C57BL/6J model, were purchased from Samtako, and Olfr544 KO mice were manufactured by Macrogen based on the C57BL/6J model using a CRISPR/Cas9 system. All experiments performed in the example are compliant to a protocol approved by the Animal Experiment Ethics Committee at Korea University (Protocol No. KUIACUC-20170322-1). The mice were acclimated at 21 to 25° C. under a 50 to 60% relative humidity condition for 12 hours before being used in the experiments, and a total of 18 mice were treated with an AzA diluted with distilled water at 50 mg/kg of body weight and distilled water as a control through oral administration for 6 weeks. The mice used in the experiments were fed a high-fat diet containing 60% fat (D12492, Research Diets, Inc) to induce fatty liver, and then a body weight was measured every week.
The measurement of the concentration of triglycerides in liver tissue was performed by homogenizing the obtained liver tissue of a mouse in 600 μL of acetone (Daejung, Korea), storing the homogenate at 4° C. for 24 hours, and obtaining a fat part by centrifugation at 12000 rpm for 10 minutes. The fat part was dried, dissolved in 95% ethanol, quantified using a Cobas C11 autoanalyzer (Roche, Basel, Switzerland), and normalized with a liver weight.
RNA was extracted from liver tissue, and the expression of PPARα and PPARα downstream genes such as Acox1, Cpt1a and Hmgcs2 were analyzed by qPCR according to the method of Example 3-1 described above.
To evaluate fatty acid oxidation, 100 mg of liver tissue was homogenized in a 0.25 M cold sucrose solution, centrifuged at 600 rpm and 4° C. thereby obtaining a supernatant, and then 50 μL of 10% Triton X-100 was added to 450 μL of the supernatant. Subsequently, 5 μL of the sample was mixed with 950 μL of 50 mM Tris-HCl, 10 μL of 20 mM NAD, 3 μL of 0.33 M dithiothreitol, 5 μL of 1.5% BSA, 5 μL of 2% Triton X-100, 10 μL of 10 mM CoA, and 10 μL of 1 mM FAD. The mixture was mixed with 2 μL of 5 mM palmitoyl-CoA, reacted at 37° C. and analyzed at 340 nm for 5 minutes using a spectrophotometer.
A C57BL/6J mouse and an Olfr544 KO mouse were treated with HFD and an AzA for 6 weeks and housed in a metabolic cage for three days, and the result at day 3 was analyzed as an experimental result. An oxygen consumption amount (VO2) and a carbon dioxide production amount (VCO2) were analyzed using an Oxylet Physiocage System (Panlab/Harvard apparatus, Cornella, Spain) and suiteMETABOLISM (V2.2.01, Panlab) software. A respiratory quotient (RQ) was calculated using the formula VCO2/VO2, and energy expenditure was analyzed using the formula EE=VO2×1.11×(3.815+1.232×RQ). The oxidation of a free fatty acid was calculated using the formula (1.6946×VO2)−(1.7012×VCO2).
An AzA (100 mg/kg) was intraperitoneally administered, and then concentration of a glycerol, which is a body fat decomposition marker, was measured. […] To measure glucose resistance and insulin resistance, a glucose and insulin resistance test was performed under a condition, in which glucose ([…]) and insulin (0.35 unit/kg/bw) are administered to a mouse.

[2] = test system: mouse primary hepatocytes; assay: Fatty acid decomposition gene markers in mouse primary hepatocyte; type: cell-based
Procedure: To reconfirm the liver tissue lipolytic effect of an AzA, an additional experiment was performed using a mouse primary hepatocyte. […] Therefore, it was reconfirmed that an AzA stimulates fatty acid oxidation, thereby treating/preventing a fatty liver lesion.

PPARα = target: T1, PPARα (Mus musculus, UniProt P23204); assay: PPRE-luciferase assay in HEK293 cells; type: cell-based; settings: HEK293 cells transfected with pSG5-PPAR alpha, various concentrations of AzA
T1 construct: host or cells: HEK293 cells (Korean Cell Line Bank)
T1 sequence (P23204 1-468): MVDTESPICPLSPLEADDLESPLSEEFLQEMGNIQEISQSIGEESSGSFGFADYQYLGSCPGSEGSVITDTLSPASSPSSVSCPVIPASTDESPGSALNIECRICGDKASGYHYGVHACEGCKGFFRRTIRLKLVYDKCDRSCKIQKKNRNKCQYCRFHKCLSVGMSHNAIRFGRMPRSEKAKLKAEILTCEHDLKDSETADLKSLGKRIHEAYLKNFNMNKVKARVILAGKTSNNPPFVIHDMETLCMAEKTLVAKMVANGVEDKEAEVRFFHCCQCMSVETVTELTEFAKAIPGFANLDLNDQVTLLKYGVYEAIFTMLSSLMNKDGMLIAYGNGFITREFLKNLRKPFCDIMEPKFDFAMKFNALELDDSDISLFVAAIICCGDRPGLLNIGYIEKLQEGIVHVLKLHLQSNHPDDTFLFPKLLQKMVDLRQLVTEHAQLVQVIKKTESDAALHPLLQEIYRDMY
Procedure: To measure PPRE-luciferase, HEK293 cells (Korean Cell Line Bank) seeded on a 24-well plate at […] cells/well were used. pSG5-PPAR alpha (Addgene, MA, USA) was co-transfected according to a given protocol using pCMV-3×PPRE-Luc, a Renilla expression vector and Lipofectamine 2000 (Invitrogen). After 24-hour post-transfection, the cells were treated with various concentrations of an AzA, and then analyzed using a dual luciferase assay kit (Promega, Fitchburg, Wis., USA) and Victor X2 (PerkinElmer, Santa Clara, Calif.). A luciferase fluorescent signal was standardized using Renilla.

mice fed a high-fat diet = assay: Comparison of AzA-added and barley-added high-fat diets in mice; type: in vivo, mouse; settings: 6 weeks
Procedure: A diet, in which an AzA (0.5 g/kg diet) or 10% (w/w) barley was added to a high-fat diet, was administered to mice for 6 weeks.

[3] = HFD and AzA for 6 weeks, metabolic cage day 3
[4] = high-fat diet, AzA 50 mg/kg oral, 6 weeks
[5] = high-fat diet, AzA 50 mg/kg oral, 6 weeks, compared with control group
[6] = AzA (0.5 g/kg diet) added to high-fat diet
[7] = AzA (0.5 g/kg diet) or 10% (w/w) barley added to high-fat diet, between groups

O=C(O)CCCCCCCC(=O)O [AzA, nonanedioic acid]
glucose resistance (glucose resistance test) [1]: significantly improved | insulin resistance (insulin resistance test) [1]: significantly improved | abdominal fat (microCT) ([1]; AzA 50 mg/kg/day): significantly decreased | total fat amount (microCT) ([1]; AzA 50 mg/kg/day): significantly decreased | blood glycerol concentration (body fat decomposition marker) ([1]; AzA 100 mg/kg intraperitoneally): stimulated the decomposition of body fats | oxidation of free fatty acids (indirect calorimetric analysis) [1, 3]: increase | respiratory quotient (indirect calorimetric analysis) [1, 3]: decrease | expression of PPARα and a target gene thereof in liver tissue [1, 4]: significantly increased | triglyceride concentration in liver tissue [1, 4]: decreased | body weight [1, 5]: decreased | fatty acid oxidation rate in liver tissue [1, 5]: increased | Acox1 gene marker [2]: significantly increases | Cpt1a gene marker [2]: significantly increases | Ppara gene marker [2]: significantly increases | PPARα activity (PPRE-luciferase): direct ligand for PPARα (PPARα): does not act as a direct ligand for PPARα | ALT concentration (hepatotoxicity marker) (mice fed a high-fat diet; [6]): decreased | LDL cholesterol concentration (mice fed a high-fat diet; [6]): significantly decreased | triglyceride concentration in liver tissue (fatty liver lesion marker) (mice fed a high-fat diet; [6]): significantly decreased | HDL cholesterol concentration (mice fed a high-fat diet; [7]): no differences | fasting blood glucose concentration (mice fed a high-fat diet; [7]): no differences | total cholesterol concentration (mice fed a high-fat diet; [7]): no differences | triglyceride concentration (blood) (mice fed a high-fat diet; [7]): no differences | body weight (mice fed a high-fat diet; AzA (0.5 g/kg diet) or 10% (w/w) barley added to high-fat diet, versus high-fat diet group): significantly decreased
